Source: patent US20150212068A1, “Cholyl-L-Lysyl-Fluorescein Assay” (Novassay SA, priority 2012, published 2015)
“Also recorded” adds a separate entry of the source.

Key:
[1] = Stability (LTD samples) of CLF in plasma measured with the CLF ELISA; type: in vitro ADME, human
Procedure: (§1) These conditions were used for all assays described in Phase 2a (above) and Phase 2b (below). See Appendix B and C for buffer and conjugate formulations respectively: • Add 25 μl/well of sample or standard (0-1000 ng/ml CLF in Buffer #24) to the wells of a streptavidin-coated microtitre plate (NovAssay, F2SAC). • Add 100 μl/well of fluorescein-biotin (Sigma B9431) at 20 ng/ml in Buffer #24+0.2% w/v ANS (Sigma 10417). • Add 100 μl/well of anti-fluorescein HRP (NovAssay, DV047/17-3) at 100 ng/ml in Buffer #24. • Incubate the plate for 30 minutes at room temperature. • Wash the plate 3 times with 800 μl/well Buffer #29 and tap the plate dry. • Add 100 μl/well of SureBlue Reserve TMB Substrate (KPL) and incubate the plate for 10 minutes at room temperature. • Stop the substrate reaction by adding 100 μl/well of 1M HCl and read the absorbance at 450 nm wavelength (ThermoFisher Scientific, Multiskan FC).
The samples provided (LTD) included 8 “standards” (no details of their preparation were given, apart from the concentration which ranged from 0 to 100 ng/ml) and samples which were presumed to be stability samples (no details of their preparation were given). The stability work appeared to have been undertaken on 3 individual donor samples. Note, that 2 of the donor samples were heavily haemolysed.

serum proteins = experiment: Recovery of spiked CLF from individual human serum samples, classical and labelled-antibody competitive immunoassays; type: in vitro ADME; conditions: inferred from low recovery of CLF spiked into serum
Procedure: Streptavidin-coated microtitre plate Biotinylated anti-fluorescein antibody, “BJ/C” (NovAssay, using HyTest mouse monoclonal anti-fluorescein, cat code 5F3 2A3 (conjugate ref. DV038/182-1) or AbD Serotec sheep polyclonal anti-fluorescein, cat code 640001 (ref. DV038/182-2) is bound to the plate CLF from the sample competes with CLF-horseradish peroxidase, “CJ/C” (CLF-HRP; NovAssay, DV047/14) for the biotinylated anti-fluorescein antibody Bound CLF-HRP is measured colorimetrically using tetramethylbenzidine (TMB) substrate.
• Streptavidin-coated microtitre plate • Biotin-fluorescein (Sigma B9431) is bound to the plate • CLF from the sample competes with bound biotin-fluorescein for an anti-fluorescein-HRP conjugate (NovAssay, using HyTest mouse monoclonal anti-fluorescein, cat code 5F3 2A3 (conjugate ref. DV047/17-3) • Bound anti-fluorescein-HRP is measured colorimetrically using tetramethylbenzidine (TMB) substrate. […]
Given the success of achieving workable standard curves in both formats, 100 ng/ml of CLF was spiked into a number of individual human serum samples, and the percentage CLF recovery calculated (e.g. 50 ng/ml=50%). […]

[2] = Stability of buffer-based CLF standards after 4 weeks storage at 2-8° C., CLF ELISA; type: physicochemical; conditions: for mean OD, fresh: freshly made; for decrease in immunoreactivity: buffer-based CLF standards
Procedure: as §1
Standards were prepared by spiking CLF into buffer (6 standards having a concentration span of 0 to 1000 ng/ml). The standards were stored at 2-8° C. for 4 weeks. They were then taken out of the fridge and assayed alongside standards that were freshly made.

[3] = Fresh std 16 ng/ml, 4 weeks at 2-8° C.
[4] = Fresh std 31 ng/ml, 4 weeks at 2-8° C.
[5] = Fresh std 63 ng/ml, 4 weeks at 2-8° C.
[6] = Fresh std 125 ng/ml, 4 weeks at 2-8° C.
[7] = Fresh std 250 ng/ml, 4 weeks at 2-8° C.
[8] = Fresh std 500 ng/ml, 4 weeks at 2-8° C.
[9] = Fresh std 1000 ng/ml, 4 weeks at 2-8° C.

With CC(CCC(=O)NC(CCCCNC(=S)Nc1ccc(-c2c3ccc(=O)cc-3oc3cc(O)ccc23)c(C(=O)O)c1)C(=O)O)C1CCC2C3C(O)CC4CC(O)CCC4(C)C3CC(O)C12C [CLF, Cholyl-L-Lysyl-Fluorescein] the “comparison of storage temperatures” value ([1]; LTD plasma stability samples, 4° C. vs RT (~18-22° C.)) was 4 °C storage is slightly better than RT, the “percent loss of CLF” value ([1]; LTD plasma stability samples, 24 hours) was “approximately 10%” and the “percent loss of CLF” value ([1]; PLASMA 2.4, T0) was 0%. The “percent loss of CLF” value ([1]; PLASMA 2.4, T30) was −11%, the “percent loss of CLF” value ([1]; PLASMA 2.4, T120) was −12% and the “percent loss of CLF” value ([1]; PLASMA 2.4, T24 h) was −11%. For the same compound, the “percent loss of CLF” value ([1]; PLASMA 2.5.1, T0) was 0%, the “percent loss of CLF” value ([1]; PLASMA 2.5.1, T30, 4° C.) was 3% and the “percent loss of CLF” value ([1]; PLASMA 2.5.1, T30 RT) was −5%. The “percent loss of CLF” value ([1]; PLASMA 2.5.1, T120 4° C.) was 1%, the “percent loss of CLF” value ([1]; PLASMA 2.5.1, T120 RT) was −6% and the “percent loss of CLF” value ([1]; PLASMA 2.5.1, T24 h 4° C.) was −9%. For the same compound, the “percent loss of CLF” value ([1]; PLASMA 2.5.1, T24 h RT) was −13%, the “percent loss of CLF” value ([1]; PLASMA 2.5.2, T0) was 0% and the “percent loss of CLF” value ([1]; PLASMA 2.5.2, T30, 4° C.) was 10%. For the same compound, the “percent loss of CLF” value ([1]; PLASMA 2.5.2, T30 RT) was 3%, the “percent loss of CLF” value ([1]; PLASMA 2.5.2, T120 4° C.) was 10% and the “percent loss of CLF” value ([1]; PLASMA 2.5.2, T120 RT) was 1%. For the same compound, the “percent loss of CLF” value ([1]; PLASMA 2.5.2, T24 h 4° C.) was −5%, the “percent loss of CLF” value ([1]; PLASMA 2.5.2, T24 h RT) was −14% and the “binding of CLF to serum proteins” value (serum proteins) was “binds to serum proteins; also recorded: significant protein binding”. The “4-week stds” value [2, 3] was 5 ng/mL, the “% change in CLF immunoreactivity” value [2, 3] was −67% and the “4-week stds” value [2, 4] was 17 ng/mL. The “% change in CLF immunoreactivity” value [2, 4] was −44%, the “4-week stds” value [2, 5] was 38 ng/mL and the “% change in CLF immunoreactivity” value [2, 5] was −40%. The “4-week stds” value [2, 6] was 72 ng/mL, the “% change in CLF immunoreactivity” value [2, 6] was −42% and the “4-week stds” value [2, 7] was 162 ng/mL. For the same compound, the “% change in CLF immunoreactivity” value [2, 7] was −35%, the “4-week stds” value [2, 8] was 359 ng/mL and the “% change in CLF immunoreactivity” value [2, 8] was −28%. The “4-week stds” value [2, 9] was 685 ng/mL, the “% change in CLF immunoreactivity” value [2, 9] was −31% and the “mean OD, 4-week old stds” value ([2]; buffer standard 16 ng/ml, 4 weeks at 2-8° C.) was 3.219. For the same compound, the “mean OD, fresh” value ([2]; buffer standard 16 ng/ml) was 2.745, the “mean OD, 4-week old stds” value ([2]; buffer standard 31 ng/ml, 4 weeks at 2-8° C.) was 2.699 and the “mean OD, fresh” value ([2]; buffer standard 31 ng/ml) was 2.265. The “mean OD, 4-week old stds” value ([2]; buffer standard 63 ng/ml, 4 weeks at 2-8° C.) was 2.133, the “mean OD, fresh” value ([2]; buffer standard 63 ng/ml) was 1.653 and the “mean OD, 4-week old stds” value ([2]; buffer standard 125 ng/ml, 4 weeks at 2-8° C.) was 1.577. For the same compound, the “mean OD, fresh” value ([2]; buffer standard 125 ng/ml) was 0.884, the “mean OD, 4-week old stds” value ([2]; buffer standard 250 ng/ml, 4 weeks at 2-8° C.) was 0.953 and the “mean OD, fresh” value ([2]; buffer standard 250 ng/ml) was 0.661. The “mean OD, 4-week old stds” value ([2]; buffer standard 500 ng/ml, 4 weeks at 2-8° C.) was 0.528, the “mean OD, fresh” value ([2]; buffer standard 500 ng/ml) was 0.419 and the “mean OD, 4-week old stds” value ([2]; buffer standard 1000 ng/ml, 4 weeks at 2-8° C.) was 0.317. For the same compound, the “mean OD, fresh” value ([2]; buffer standard 1000 ng/ml) was 0.235, the decrease in immunoreactivity ([2]; 4 weeks at 2-8 C.) was “resulted in a 30-40% decrease in” and the decrease in immunoreactivity ([2]; 4 weeks at 2-8° C., vs fresh standards) was 30-40%.
